# Like-named read-outs stand apart in the source and are kept apart here.
# Legend:
# Format in all cases: cell-based, human
# [1] = test system: HEK293 cells expressing S1PR1; assay: ERK1/2 phosphorylation ELISA/immunoblot in HEK293 cells expressing S1PR1
# Experimental: (§1) Human embryonic kidney-293 (HEK293, ATCC CRL-1573) cells were routinely maintained in complete DMEM/F12 1:1 mixture (Sigma Aldrich) containing 10% FBS and 0.5 mM N-acetyl cysteine. Mycoplasma detection was performed routinely by checking for cytoplasmic DNA and every six months with Universal Mycoplasma Detection Kit (ATCC 30–1012 K). The stop-less coding sequences of either wild-type S1PR1 or mS1PR1 (without the additional modifications present in the constructs for the protein production) were obtained from GeneArt (Thermo Fisher Scientific) and inserted into the HindIII/BamHI-digested pEGFP-N1 vector (Takara) to express S1PR1- and mS1PR1-eGFP. The pEFGP-N1-S1PR1 or pEFGP-N1-mS1PR1 plasmids were further modified by re-introducing the TAG stop codon at the 3′ end of the S1PR1 open reading frame to express untagged S1PR1 or mS1PR1, respectively, using the primer pair 5’-[…]-3’ and 5′-[…]-3′. Cell monolayers were transfected with JetPEI™ (Polyplus) and the appropriate plasmid vectors. Transfected cell cultures were passed once a week for three times and then the GFP^+ cells were sorted in a MoFlo XDP (Beckman Coulter). Sorted cell cultures were expanded and sorted again and the expression of the desired chimeric protein verified by immunoblot. Sorting was performed at the Flow Cytometry Resourc, Advanced Cytometry Technical Applications Laboratory of IRCCS San Raffaele Scientific Institute.
# (§2) Two hundred nanomole of S1PR1/L of culture medium were used at […] receptor concentration. Under sterile conditions, purified receptor was first dialysed three times against the serum-free medium. Medium-equilibrated S1PR1 was then incubated 24 h at +4 °C in complete culture medium. The depletion procedure was performed twice for each lot of culture medium. […] The depleted medium was also used to prepare 1000× stock solutions of each of the two S1PR1 agonists or the GRK inhibitor CCG215022, and the 10× ML056 stock solution used in the cell-based experiments.
# (§3) HEK293 cells were plated in 96 multi-well plates and grown until 90% confluent. […] To quantify pERK1/2 and total ERK, 40 µg and 5 µg of total protein extract were used from each well, respectively. The chromogenic signals were read at the Sunrise Tecan multi-plate reader and expressed as pERK/ERKTotal signal ratio. […] AKT phosphorylation was quantified by ELISA as above in cell lysates after 5 min stimulation, with the AKT (pS473 + Total) ELISA Kit from Abcam (cat. n. ab176657).
# [2] = test system: HEK293 cells expressing mS1PR1; assay: ERK1/2 phosphorylation ELISA/immunoblot in HEK293 cells expressing mS1PR1; conditions: for change of potency in stimulating ERK phosphorylation, mS1PR1 vs S1PR1 clones / maximal pERK response in mS1PR1 vs S1PR1 clones: 5 min stimulation, 1 pM–1 mM ligand
# Experimental: 95% CI are reported in Supplementary Fig. 4.
# as §1, §2, §3
# [3] = test system: HEK293 cells expressing S1PR1-eGFP; assay: Confocal microscopy count of cytosolic eGFP+ clusters (receptor internalisation), S1PR1-eGFP; conditions: 0.1 µM, 20 min
# Experimental: (§4) Cells expressing S1PR1-eGFP or mS1PR1-eGFP were plated onto poly-L-lysine-coated 8 well µ-slides (Ibidi) at 3 × 10^4 cell/well. […] Images were deconvoluted using Huygens Professional Software (Scientific Volume Imaging). Mid-plane z-sections were used for counting cytosolic GFP^+ vesicles in cells stimulated for 20 min. Confocal imaging was performed at the Advanced Light and Electron Microscopy Bioimaging Centre of IRCCS San Raffaele Scientific Institute. We used a custom Matlab script (Supplementary Data 1) performing the following image analysis: (i) the membranes were segmented from the image, identifying regions of both absolute and local high intensity (Supplementary Fig. 9A–G) in order to include all the membranes independently of their intensity; (ii) morphological erosion was used to clear small objects and to smooth the edges of the identified membranes (Supplementary Fig. 9H, I); (iii) the region of interest was defined as the region completely enclosed by a membrane (Supplementary Fig. 9J, K); (iv) GFP^+ cytosolic vesicles were identified as local intensity maxima (Supplementary Fig. 9L–O) within the region of interest and counted. Experiments were replicated independently three times. The number of vesicles from 40 to 150 cells were counted as detailed in Fig. 4 legend and the statistical analysis performed with the GraphPad Prism software.
# [4] = test system: HEK293 cells expressing mS1PR1-eGFP; assay: Confocal microscopy count of cytosolic eGFP+ clusters (receptor internalisation), mS1PR1-eGFP; conditions: 0.1 µM, 20 min
# Experimental: as §4
# [5] = test system: HEK293 cells expressing S1PR1-eGFP; assay: Anti-GFP immunoprecipitation of S1PR1-eGFP, immunoblot for β-arrestin 1/2 and ERK1/2; conditions: 0.1 µM, co-immunoprecipitation; for S1PR1 binding to β-arrestins in the late signalling phase: 30 min
# Experimental: (§5) Cells were washed twice in ice-cold phosphate-buffered saline and lysed in 20 mM HEPES, 150 mM NaCl, 1% Triton X-100, 0.15% Nonidet P-40, 1× HALT™ Proteases and Phosphatases inhibitor cocktail, 1.25 U/mL Benzonase. Clarified lysates were incubated for 1 h at +4 °C with GFP-Trap® resin (Chromotek) and extensively washed with lysis buffer. Finally, the immunopurified material was eluted in 4% SDS and analysed by immunoblot. The equal loading was based on the GFP amount reading the samples in the Cary Eclipse Varian spectrofluorometer with 488 nm λEx and 509 nm λEm. In some experiments, cells expressing S1PR1 without the GFP tag were used as control and the equal loading was based on total protein concentration measured with the BCA method (G Biosciences).
# [6] = test system: HEK293 cells expressing mS1PR1-eGFP; assay: Anti-GFP immunoprecipitation of mS1PR1-eGFP, immunoblot for β-arrestin 1/2 and ERK1/2; conditions: 0.1 µM, co-immunoprecipitation
# Experimental: as §5
# [7] = test system: HEK293 S1PR1 expressing cells; assay: AKT phosphorylation ELISA in HEK293 S1PR1 expressing cells; conditions: 0.1 µM S1P or FTY720-P for 5 min, PTX 300 ng/mL, CCG215022 50 µM
# Experimental: as §3, with “ab176657). […]” for “ab176657).”
# pertussis toxin (PTX) for 18 hours and with 0.1% DMSO alone or with 50 µM CCG215022 […]
# 20 nM EGF for 5 min. pERK1/2 or pAKT were measured in the cell extracts by ELISA and expressed as relative units; n=12 independent experiments. (b) HEK293 cells expressing […]
# (§6) ELISA and expressed as relative units; n=3 independent experiments. […]
# [8] = test system: HEK293 cells expressing S1PR1-eGFP; assay: Fluorescence-based analysis of S1PR1 down-modulation, S1PR1-eGFP; conditions: 4 h-long treatment
# Experimental: Cells were washed twice in ice-cold phosphate-buffered saline and lysed in 20 mM HEPES, 150 mM NaCl, 1% Triton X-100, 0.15% Nonidet P-40, 1× HALT™ Proteases & Phosphatases inhibitor cocktail, 1.25 U/mL Benzonase. Lysates were clarified were used and 50 µg of total protein from each sample were read in the Cary Eclipse Varian spectrofluorometer with 488 nm λEx and 509 nm λEm to measure the eGFP amount.
# [9] = test system: HEK293 cells expressing mS1PR1-eGFP; assay: Fluorescence-based analysis of S1PR1 down-modulation, mS1PR1-eGFP; conditions: 4 h-long treatment
# [10] = test system: HEK293 S1PR1 expressing cells; assay: EGF-mediated ERK1/2 phosphorylation in HEK293 S1PR1 expressing cells (inhibitor specificity control); conditions: CCG215022 50 µM, 20 nM EGF for 5 min
# Experimental: HEK293 cells were plated in 96 multi-well plates and grown until 90% confluent. After the S1P-starvation, the cell monolayers were treated as described in the text and then processed using the ERK1/2 (pT202/Y204 + Total) ELISA Kit from Abcam (cat n. ab176660), following the manufacturer guidelines and adding the HALT™ Proteases & Phosphatases inhibitor cocktail (Thermo Fisher Scientific) to the lysis buffer provided with the kit. To quantify pERK1/2 and total ERK, 40 µg and 5 µg of total protein extract were used from each well, respectively. The chromogenic signals were read at the Sunrise Tecan multi-plate reader and expressed as pERK/ERKTotal signal ratio. […] AKT phosphorylation was quantified by ELISA as above in cell lysates after 5 min stimulation, with the AKT (pS473 + Total) ELISA Kit from Abcam (cat. n. ab176657).
# Supplementary Figure 2 | Effects of S1PR1 overexpression in HEK293 cells. […]
# 20 nM EGF for 5 min. pERK1/2 or pAKT were measured in the cell extracts by ELISA and expressed as relative units; n=12 independent experiments. […]
# as §6
# without 30 min pre-treatment with 100 µM ML056. Cell extracts were then analysed in immunoblotting for S1PR1, ERK1/2 and pERK1/2.
Molecule,"change of potency in stimulating ERK phosphorylation, mS1PR1 vs S1PR1 clones [2]",maximal pERK response in mS1PR1 vs S1PR1 clones [2],"number of clusters/cell, 95% CI [3]","number of clusters/cell, 95% CI [4]",S1PR1 binding to β-arrestins in the late signalling phase [5],ERK1/2 recruited onto activated S1PR1 [5],stable interaction of mS1PR1 with β-arrestin [6],effect on AKT phosphorylation [7],also measured
"CCCCCCCCCCCCC/C=C/[C@@H](O)[C@@H](N)COP(=O)(O)O [S1P, Sphingosine 1-phosphate]",ten-fold decrease of their potency,not affected,6.7–10.2 clusters/cell,5.7–7.7 clusters/cell,only a limited interaction,recruited more ERK1/2,neither S1P nor FTY720-P were capable to induce a stable interaction,induced,"pERK1/2 still detectable after 60 min, % of its maximal value [1]: 50%; time of early pERK1/2 peak [1]: 5 min"
"CCCCCCCCc1ccc(CC[C@](N)(CO)COP(=O)(O)O)cc1 [FTY720-P, FTY720 (S)-phosphate]",ten-fold decrease of their potency,not affected,9.9–14.1 clusters/cell,8.7–11 clusters/cell,stable binding to β-arrestins,did not show an increase of the interaction with ERK1/2 above baseline levels,neither S1P nor FTY720-P were capable to induce a stable interaction,induced,"time at which pERK1/2 response decreased to the baseline level ([1]; 0.1 µM agonist): 20 min; time of early pERK1/2 peak ([1]; 0.1 µM agonist, S1P-starved cells): 5 min; pERK1/2 kinetics in mS1PR1 cells ([2]; 0.1 µM agonist): stable level of ERK1/2 phosphorylation; S1PR1 level in cell lysates (receptor degradation) [8]: barely detectable; mS1PR1 level in cell lysates (receptor degradation) [9]: remained stable"
pertussis toxin,–,–,–,–,–,–,–,abolishes,"effect on S1P- and FTY720-P-induced ERK1/2 phosphorylation ([1]; 300 ng/mL pertussis toxin for 18 h, then 0.1 µM agonist): undetectable; effect on agonist-induced ERK phosphorylation in mS1PR1-expressing clones ([2]; 300 ng/mL PTX, stimulation with either agonist): reduced the ERK phosphorylation to basal"
CC1=C(C(=O)Nc2ccc3[nH]ncc3c2)C(c2ccc(F)c(C(=O)NCc3ccccn3)c2)NC(=O)N1 (centres unmarked) [CCG215022],–,–,–,–,–,–,–,not modified,effect on EGF-mediated ERK1/2 phosphorylation [10]: does not inhibit
CCCCCCc1cccc(NC(=O)[C@H](N)CCP(=O)(O)O)c1 [ML056],–,–,–,–,–,–,–,–,"effect on agonist-induced signalling response (pERK1/2) ([1]; 30 min pre-treatment with 100 µM ML056, then 0.1 µM S1P, immunoblot): abrogated"

# — PMC6962373, “Combinatorial allosteric modulation of agonist response in a self-interacting G-protein coupled receptor” (Communications Biology, 2020)
